In patent US11471504B2, “Combination therapy for the treatment of cancer” (Yeda Research and Development Co. Ltd., priority 2017, dated 2022):
“Also recorded” adds a separate entry of the source. Residues, ends and D or L forms follow the SMILES beside them. *: point of attachment. Myristoyl = CCCCCCCCCCCCCC(=O)*

Columns and labels:
[1] = tested on: nuclear translocation of ERK1/2; test: ERK1/2 nuclear translocation, fluorescence microscopy, EPE-sensitive NRAS melanomas (63T, 83T, 120T, 60T); type: cell-based, human; conditions: EPE-sensitive cells; serum starved, peptide 10 μM 2 h, TPA 100 nM 15 min
Procedure: (§1) FIGS. 2A-B: The EPE peptide blocks the nuclear translocation in “sensitive” NRAS melanomas. The same seven cell lines selected previously, were serum starved (14 h), pre-treated with EPE or Scr peptide […], and stimulated with TPA (100 nM, 15 min) or left untreated (NS). Cells were then fixed and stained with αERK2 Abs and DAPI. […] (B) The effect of EPE peptide on the nuclear translocation of ERK1/2 is modest in resistant cells compared to (A). Bars represent average percentage of cells with mostly nuclear (N, red), nuclear and cytosolic (NC, black) or mostly cytosolic (C, white) staining. Error bars represent standard error of 2 or 3 independent experiments. Quantification was done by counting at least three fields with >150 cells.
(§2) Fluorescence microscopy: Cells were seeded on coverslips coated with 0.001% w/v poly-L-Lysine (PLL) at 60% confluency. After treatments, cells were fixed in 4% paraformaldehyde/PBS^−/− for 20 min on ice surface, permeabilized with 0.1% Triton X-100/PBS^−/− for 5 min at 23° C., then blocked in 2% BSA/PBS^−/− for 30 min at 23° C. […] Slides were analyzed and photographed by a fluorescence microscope (Olympus BX51, x40). […]

[2] = tested on: 39T NF1 mutant melanoma cells; test: Cell viability assay (CellTiter-Glo), 39T; type: cell-based, human; conditions: 10 μM, 72 h
[3] = tested on: 83T NRAS mutant melanoma cells; test: Cell viability assay (CellTiter-Glo), 83T; type: cell-based, human; conditions: 10 μM, 72 h
Procedure: (§3) (B) Effect of BRAF inhibitor vemurafenib on selected melanomas. […] All melanoma cells selected were resistant to BRAF inhibition.
(§4) Dots represent triplicates for every concentration point. […] Viable cells were quantified using CellTiter-Glo reagent. […] Quantified levels are given under the blots. ImageJ was used for the quantification.
(§5) All cell lines have tested negative for mycoplasma.
(§6) IC50 values were determined using GraphPad Prism.

ERK1/2 signaling [4] = test: Western blot of ERK1/2 signaling, EPE-sensitive NRAS melanomas (60T, 83T); type: cell-based, human; conditions: EPE-sensitive cells, 10 μM 2 h
Procedure: (§7) FIGS. 3A-B: The EPE peptide reduces phosphorylation of nuclear targets in NRAS mutant melanomas. Two NRAS melanomas sensitive to EPE peptide (60T an 83T), and two EPE-resistant melanomas (39T and 103T), were serum starved (16 h), pretreated with EPE or Scr peptides (10 μM, 2 h), and stimulated with TPA (100 nM, 15 min) (+) or left untreated (−). […] (A) (Left) In the EPE-sensitive cells, the peptide reduced the phosphorylation of nuclear targets Elk1 and c-Myc in stimulated and basal state, while not affecting cytosolic target RSK. […] (B) Quantification of bands in (A). Bars represent average band density ratio of EPE stimulated samples (EPE+) compared to Scr stimulated samples (Scr+), ±S.E. of 2 or 3 independent experiments. Bands were quantified using ImagJ.
(§8) Quantification of blots was done using ImageJ.

melanoma cell lines = test: Cell viability assay (CellTiter-Glo), panel of melanoma cell lines; type: cell-based, human; conditions: 36 melanoma cell lines, peptide 10 μM, 72 h
[5] = tested on: nuclear translocation of ERK1/2; test: ERK1/2 nuclear translocation, fluorescence microscopy, EPE-resistant melanomas (110T, 39T, 103T); type: cell-based, human; conditions: EPE-resistant cells; serum starved, peptide 10 μM 2 h, TPA 100 nM 15 min
Procedure: as §1, §2

[6] = tested on: 63T NRAS mutant melanoma cells; conditions: 10 µM
Procedure: (§9) (A) Effect of the EPE peptide on proliferation of metastatic melanoma cells. Thirty-six melanoma cell lines derived from metastatic tumor resections were treated with either EPE or scrambled (Scr) peptides (10 μM). […] Cell viability was measured by CellTiter-Glo reagent after 72 h of treatment. Bars represent percentage of growth respect to Scr peptide control ±S.E. of 3 independent experiments.
(§10) Pathology-confirmed melanoma cell lines were derived from mechanically or enzymatically dispersed tumor cells, which were then cultured in RPMI-1640 supplemented with 10% FBS at 37° C. in 5% CO2 for 5-15 passages. All cell lines have tested negative for mycoplasma.
(§11) Cell viability assay: Cells were seeded at a density of 4000 cells per well into 96-well plates in complete medium. After 24 h, medium was replaced by 1% FCS containing appropriate treatments. Fresh medium containing the same agents was replaced every day. After 96 h, cell proliferation was assessed using the CellTiter-Glo reagent (Promega). IC50 values were determined using GraphPad Prism.

[7] = tested on: interaction of Importin7 with ERK1/2; conditions: cited from earlier work
[8] = tested on: 120T NRAS mutant melanoma cells; test: Cell viability assay (CellTiter-Glo), 120T; type: cell-based, human; conditions: 10 μM, 72 h
[9] = tested on: 110T NRAS mutant melanoma cells; test: Cell viability assay (CellTiter-Glo), 110T; type: cell-based, human; conditions: 10 μM, 72 h
Procedure: as §3, §4, §5, §6

[10] = tested on: cancer cell types, BRAF melanomas; conditions: cited from earlier work
[11] = tested on: 60T NRAS mutant melanoma cells; conditions: 10 µM
Procedure: as §9, §10, §11

ERK1/2 signaling [12] = test: Western blot of ERK1/2 signaling, EPE-resistant melanomas (39T, 103T); type: cell-based, human; conditions: EPE-resistant cells, 10 μM 2 h
Procedure: as §7, §8

[13] = tested on: BRAF and MEK inhibitor-resistant models; conditions: cited from earlier work

CCCCCCCCCCCCCC(=O)NCC(=O)N[C@@H](CCC(N)=O)C(=O)N[C@@H](CC(C)C)C(=O)N[C@@H](CC(N)=O)C(=O)N[C@@H](Cc1c[nH]cn1)C(=O)N[C@H](C(=O)N[C@@H](CC(C)C)C(=O)NCC(=O)N[C@H](C(=O)N[C@@H](CC(C)C)C(=O)NCC(=O)N[C@@H](CCC(=O)O)C(=O)N1CCC[C@H]1C(=O)N[C@@H](CCC(=O)O)C(=O)N[C@@H](CCC(N)=O)C(=O)N[C@@H](CCC(=O)O)C(=O)N[C@@H](CC(=O)O)C(=O)N[C@@H](CC(C)C)C(N)=O)[C@@H](C)CC)[C@@H](C)CC [EPE peptide] (Myristoyl-GQLNHILGILGEPEQEDL-NH2)
effect on stimulated nuclear translocation of ERK1/2 [1]: disrupted; also recorded: significantly reduces | sensitivity to the EPE peptide (percentage of viability compared to Scr peptide control) [2]: resistant (resistant (above 80%)) | sensitivity to the EPE peptide (percentage of viability compared to Scr peptide control) [3]: sensitive | activity of ERK1/2 (phosphorylation of activatory TEY motif and substrate RSK) (ERK1/2 signaling [4]): did not inhibit | phosphorylation of cytosolic target RSK (ERK1/2 signaling [4]): not affecting | phosphorylation of nuclear target Elk1 (ERK1/2 signaling [4]; basal and TPA-stimulated): reduced | phosphorylation of nuclear target c-Myc (ERK1/2 signaling [4]; basal and TPA-stimulated): reduced | sensitivity of metastatic melanoma cell lines to the EPE peptide (viability vs Scr peptide) (melanoma cell lines): A subset of BRAF, NRAS and NF1 mutant melanomas were sensitive | effect on stimulated nuclear translocation of ERK1/2 [5]: disrupted; also recorded: modest | sensitivity to the EPE peptide (percentage of viability compared to Scr peptide control) [6]: sensitive | interaction of Importin7 with ERK1/2 and nuclear translocation of ERK1/2 [7]: inhibited | sensitivity to the EPE peptide (percentage of viability compared to Scr peptide control) [8]: sensitive | sensitivity to the EPE peptide (percentage of viability compared to Scr peptide control) [9]: resistant (resistant (above 80%)) | apoptosis ([10]; BRAF melanomas): induces apoptosis | proliferation of cancer cell types ([10]; several cancer cell types): inhibit the proliferation | sensitivity to the EPE peptide (percentage of viability compared to Scr peptide control) [11]: sensitive | activity of ERK1/2 (phosphorylation of activatory TEY motif and substrate RSK) (ERK1/2 signaling [12]): did not inhibit | phosphorylation levels of c-Myc (ERK1/2 signaling [12]): slightly increased | phosphorylation of Elk1 (ERK1/2 signaling [12]): no effect | phosphorylation of RSK (ERK1/2 signaling [12]): no effect

O=C(Nc1ccc2[nH]nc(-c3ccncc3)c2c1)[C@@H]1CCN(CC(=O)N2CCN(c3ccc(-c4ncccn4)cc3)CC2)C1 [SCH772984]
tumor growth [13]: showed benefits in reducing tumor growth
